Among the data in US20120165346A1, “Compounds and their use as BACE inhibitors” (ASTRAZENECA AB, priority 2010, published 2012) are IC50 values, retold here.

Each structure is given as a SMILES string. pIC50: −log10 of the molar value.

Usually pIC50 stands for the IC50 on a negative log10 scale, so that one unit is a factor of ten.

Test [1] has as its target T1, human β-Secretase (AA 1-AA 460), sBACE-Fc (Homo sapiens, UniProt P56817).
T1 construct: soluble part of the human β-Secretase (AA 1-AA 460) was cloned; Fc domain of IgG1; made in house
In words: Diluted TR-FRET assay. The format is biochemical. The conditions noted are these: footnote a: diluted FRET assay, 50 times less enzyme, 6.5 h reaction time at r.t.; read-out: IC50 in TR-FRET assay (IC50 from the diluted FRET assay). On the procedure: The cDNA for the soluble part of the human β-Secretase (AA 1-AA 460) was cloned using the ASP2-Fc10-1-IRES-GFP-neoK mammalian expression vector. The gene was fused to the Fc domain of IgG1 (affinity tag) and stably cloned into HEK 293 cells.
The robotic systems Biomek FX and Velocity 11 were used for all liquid handling and the enzyme and substrate solutions were kept on ice until they were placed in the robotic system. Enzyme (9 μA) was added to the plate then 1 μA of compound in dimethylsulphoxide was added, mixed and pre-incubated for 10 minutes. Substrate (10 μA) was then added, mixed and the reaction proceeded for 15 minutes at r.t. The reaction was stopped with the addition of Stop solution (7 μl, NaAcetate, pH 9). […] The dimethylsulphoxide control, instead of test compound, defined the 100% activity level and 0% activity was defined by wells lacking enzyme (replaced with reaction buffer).
A general note: TR-FRET usually uses a lanthanide donor and a delayed reading to cut background.

In test [2] the test system is sAPPβ release, SH-SY5Y cells. Nature of the test: sAPPβ release assay. The format is cell-based. The conditions noted are these: Homo sapiens, compounds incubated 17 h. The protocol: SH-SY5Y cells were cultured in DMEM/F-12 with Glutamax, 10% FCS and 1% non-essential amino acids and cryopreserved and stored at −140° C. at a concentration of 7.5−9.5×10^6 cells per vial. Thaw cells and seed at a conc. of around 10000 cells/well in DMEM/F-12 with Glutamax, 10% FCS and 1% non-essential amino acids to a 384-well tissue culture treated plate, […] cell susp/well. The cell plates were then incubated for 7-24 h at 37° C., 5% CO2. The cell medium was removed, followed by addition of 30 μL compound diluted in DMEM/F-12 with Glutamax, 10% FCS, 1% non-essential amino acids and 1% PeSt to a final conc. of 1% DMSO. The compounds were incubated with the cells for 17 h (overnight) at 37° C., 5% CO2. Meso Scale Discovery (MSD) plates were used for the detection of sAPPβ release. MSD sAPPβ plates were blocked in 1% BSA in Tris wash buffer (40 μL/well) for 1 h on shake at r.t. and washed 1 time in Tris wash buffer (40 μL/well). 20 μL of medium was transferred to the pre-blocked and washed is MSD sAPPβ microplates, and the cell plates were further used in an ATP assay to measure cytotoxicity. The MSD plates were incubated with shaking at r.t. for 2 h and the media discarded. 10 μL detection antibody was added (1 nM) per well followed by incubation with shaking at r.t. for 2 h and then discarded. 40 μL Read Buffer was added per well and the plates were read in a SECTOR Imager.

T1 sequence (P56817 22-460): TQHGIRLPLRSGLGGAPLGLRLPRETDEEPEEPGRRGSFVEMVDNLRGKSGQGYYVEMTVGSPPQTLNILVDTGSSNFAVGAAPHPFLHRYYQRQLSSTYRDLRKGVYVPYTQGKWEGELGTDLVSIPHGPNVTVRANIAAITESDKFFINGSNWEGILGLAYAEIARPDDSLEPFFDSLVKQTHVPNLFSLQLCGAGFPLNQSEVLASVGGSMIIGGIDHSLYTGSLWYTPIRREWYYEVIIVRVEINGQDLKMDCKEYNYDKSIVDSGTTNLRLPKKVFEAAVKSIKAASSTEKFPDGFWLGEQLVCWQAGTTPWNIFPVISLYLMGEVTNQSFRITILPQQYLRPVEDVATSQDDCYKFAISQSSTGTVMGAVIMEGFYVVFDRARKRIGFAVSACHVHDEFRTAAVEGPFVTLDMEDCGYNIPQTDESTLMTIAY

On to `CC#Cc1cncc(-c2cccc([C@@]3(c4cc(C)c(=O)n(C)c4)N=C(N)c4c(F)cccc43)c2)c1` [Example 1, (R)-5-(3-Amino-4-fluoro-1-(3-(5-(prop-1-ynyl)pyridin-3-yl)phenyl)-1H-isoindol-1-yl)-1,3-dimethylpyridin-2(1H)-one], for which the pIC50 was 8.22 in test [1] and 8.70 in test [2].
Take `CCn1cc(C2(c3cccc(-c4cncc(C#N)c4)c3)N=C(N)c3c(F)cccc32)cc(C)c1=O` (centres unmarked) [Example 8, 5-(3-(3-Amino-1-(1-ethyl-5-methyl-6-oxo-1,6-dihydropyridin-3-yl)-4-fluoro-1H-isoindol-1-yl)phenyl)nicotinonitrile]: the pIC50 in test [1] was 8.10; in test [2], 8.70.
`CC#Cc1cncc(-c2cccc(C3(c4cc(C(F)F)c(=O)n(CC)c4)N=C(N)c4c(F)cccc43)c2)c1` (centres unmarked) [Example 23, 5-(3-Amino-4-fluoro-1-(3-(5-(prop-1-ynyl)pyridin-3-yl)phenyl)-1H-isoindol-1-yl)-3-(difluoromethyl)-1-ethylpyridin-2(1H)-one]: the results for the pIC50 in test [1] and in test [2] were 8.22 and 8.40, respectively.
With `CC#Cc1ccnc(-c2cccc([C@@]3(c4cc(C)c(=O)n(CC)c4)N=C(N)c4c(F)cccc43)c2)c1` [Example 25, (R)-5-(3-Amino-4-fluoro-1-(3-(4-(prop-1-ynyl)pyridin-2-yl)phenyl)-1H-isoindol-1-yl)-1-ethyl-3-methylpyridin-2(1H)-one], the pIC50 was 8.30 in test [1] and 8.70 in test [2].
Regarding `CCn1cc(C2(c3cccc(-c4cncnc4)c3)N=C(N)c3c(F)cccc32)cc(C)c1=O` (centres unmarked) [Example 6, 5-(3-Amino-4-fluoro-1-(3-(pyrimidin-5-yl)phenyl)-1H-isoindol-1-yl)-1-ethyl-3-methylpyridin-2(1H)-one], the pIC50 is 7.80 in test [1] and 8.05 in test [2].
The like results for `CCn1cc(C2(c3cccc(-c4cncc(F)c4)c3)N=C(N)c3c(F)cccc32)cc(C)c1=O` (centres unmarked) [Example 9, 5-(3-Amino-4-fluoro-1-(3-(5-fluoropyridin-3-yl)phenyl)-1H-isoindol-1-yl)-1-ethyl-3-methylpyridin-2(1H)-one] were, in that order, 7.89 and 8.40.
For `CC#Cc1cncc(-c2cc(C3(c4cc(C)c(=O)n(CC)c4)N=C(N)c4c(F)cccc43)ccn2)c1` (single isomer, unassigned) [Example 26, 5-(3-amino-4-fluoro-1-(5′-(prop-1-ynyl)-2,3′-bipyridin-4-yl)-1H-isoindol-1-yl)-1-ethyl-3-methylpyridin-2(1H)-one], the values for the pIC50 in test [1] and in test [2] were 8.40 and 9.15, respectively.
